Assay results reported in patent publication US10954246B2, “Compound of EOC315 Mod.I crystal form and preparation method thereof” (Taizhou EOC Pharma Co., Ltd., priority 2017, dated 2021).
Where a name gives a salt, the structure may show the parent alone.

Legend:
[1] = Crystalline form after micronization (XRPD, DSC, HSM); type: physicochemical; conditions: micronized, D90≤15 μm
Description: The pressure of the micronization equipment was set to be ≥0.65 MPa to obtain an EOC315 crystalline form micropowder, with a particle size D90≤15 μm. The X-ray powder diffraction, DSC, and HSM data of the micronized sample were measured using the aforementioned methods, and the results are shown in FIG. 2, FIG. 4, and FIG. 6.

[2] = test system: advanced gastric cancers or gastroesophageal junction (GEJ) cancers; assay: Efficacy study of EOC315 with capecitabine and cisplatinum in patients; type: in vivo, human; conditions: combination with capecitabine and cisplatinum
Text: After at most 6 cycles of cisplatinum treatment, both or either of capecitabine and EOC315 was delivered to a subject in a dosage previously used according to the toxic reaction conditions, until the disease progressed.
Forty-eight subjects in total were enrolled for this study. Forty-five subjects (94%) had tumor metastasis and thirty-five subjects (73%) had more than two metastatic sites thereinto. The livers of 26 subjects (54%) were involved due to the tumors. The major sites involved for the 26 subjects (54%) were gastroesophageal junctions, the major sites involved for 22 subjects (46%) were stomach, and the majority of the subjects got an ECOG score of 1 (n=41, 85%).
Thirty-nine subjects completed at least one course of treatment and got therapeutic effect evaluation. The objective response rate (ORR) was 67%. One subject (2.6%) achieved the complete response. […] It was evaluated that the objective response generally occurred in the previous two cycles of treatment and lasted for a long time, which was related closely to the duration of treatment received by the subjects. The anti-tumor effect was not related to tumor tissue type, the primary site, whether or not liver is involved, or the study center. Median progression-free survival (PFS) was 4.5 months. […] The median time to progression for patients showing tumor remission was 6.4 months. Median overall survival (OS) was estimated to be 7.8 months, and the 1-year survival rate was 33%.

[3] = biological target: VEGFR-2 (Vascular Endothelial Growth Factor Receptor-2) tyrosine kinase (Homo sapiens, UniProt P35968); conditions: cited from earlier work
[4] = test system: PDGFR (Platelet-Derived Growth Factor Receptor) tyrosine kinase; conditions: cited from earlier work

Sequence of VEGFR-2 (Vascular Endothelial Growth Factor Receptor-2) tyrosine kinase (P35968 20-1356): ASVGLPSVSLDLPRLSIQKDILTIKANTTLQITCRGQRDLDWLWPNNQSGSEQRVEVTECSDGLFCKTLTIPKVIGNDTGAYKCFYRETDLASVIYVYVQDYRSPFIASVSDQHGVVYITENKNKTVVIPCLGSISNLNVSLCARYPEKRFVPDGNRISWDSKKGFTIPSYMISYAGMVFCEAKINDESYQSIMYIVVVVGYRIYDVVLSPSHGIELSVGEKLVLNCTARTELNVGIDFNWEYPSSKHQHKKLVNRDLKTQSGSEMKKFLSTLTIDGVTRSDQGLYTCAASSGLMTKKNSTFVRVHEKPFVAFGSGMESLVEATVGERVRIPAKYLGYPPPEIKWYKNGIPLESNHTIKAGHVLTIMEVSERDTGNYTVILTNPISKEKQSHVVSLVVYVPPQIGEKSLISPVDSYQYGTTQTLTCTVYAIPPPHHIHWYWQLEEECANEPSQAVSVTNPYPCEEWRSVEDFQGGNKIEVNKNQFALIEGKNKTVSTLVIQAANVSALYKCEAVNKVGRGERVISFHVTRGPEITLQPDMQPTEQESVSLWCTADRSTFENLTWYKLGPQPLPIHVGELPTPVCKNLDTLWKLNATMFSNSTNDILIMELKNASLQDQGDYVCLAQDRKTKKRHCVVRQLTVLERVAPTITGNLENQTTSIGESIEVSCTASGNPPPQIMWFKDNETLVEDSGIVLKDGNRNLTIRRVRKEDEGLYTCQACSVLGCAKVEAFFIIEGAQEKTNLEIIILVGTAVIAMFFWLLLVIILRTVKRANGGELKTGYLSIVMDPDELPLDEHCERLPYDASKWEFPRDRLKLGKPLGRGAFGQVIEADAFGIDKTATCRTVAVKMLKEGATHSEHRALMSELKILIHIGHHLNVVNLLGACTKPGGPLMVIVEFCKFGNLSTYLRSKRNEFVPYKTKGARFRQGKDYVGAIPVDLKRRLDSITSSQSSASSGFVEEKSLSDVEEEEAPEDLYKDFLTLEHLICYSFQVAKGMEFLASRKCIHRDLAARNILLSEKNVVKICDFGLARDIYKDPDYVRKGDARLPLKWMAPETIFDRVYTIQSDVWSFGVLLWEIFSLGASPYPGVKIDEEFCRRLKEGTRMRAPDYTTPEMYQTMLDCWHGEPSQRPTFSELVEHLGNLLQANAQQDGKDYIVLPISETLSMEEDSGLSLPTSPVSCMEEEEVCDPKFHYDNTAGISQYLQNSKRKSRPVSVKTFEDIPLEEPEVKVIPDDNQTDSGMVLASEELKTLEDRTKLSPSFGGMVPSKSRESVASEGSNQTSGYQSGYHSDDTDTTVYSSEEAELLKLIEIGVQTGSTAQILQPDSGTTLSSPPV

CNC(=O)c1cc(OCc2nnc(Nc3ccc(Cl)cc3)c3ccoc23)ccn1 [micronized EOC315]
crystalline form after micronization [1]: remained unchanged

CNC(=O)c1cc(OCc2nnc(Nc3ccc(Cl)cc3)c3ccoc23)ccn1 [EOC315, 4-(4-chloroanilino)-7-(2-methylaminocarbonyl-4-oxymethyl) pyridylfuro[2,3-d]pyridazine mesylate]
proportion of patients without tumor-progression within 6 months ([2]; Kaplan-Meier analysis): 52%
1-year survival rate [2]: 33%
median progression-free survival (PFS) [2]: 4.5 months
objective response rate (ORR) ([2]; 39 evaluable subjects): 67%
subjects with complete response ([2]; 39 evaluable subjects): 2.6%
subjects with partial response ([2]; 39 evaluable subjects): 64.1%
subjects with stable condition maintained more than 12 weeks ([2]; 39 evaluable subjects): 28.2%
median overall survival (OS) ([2]; estimated): 7.8 months
median time to progression ([2]; patients showing tumor remission): 6.4 months
IC50 [3]: 6 nM
IC50 [4]: 15 nM
